Data set [1] in a line: pH of solute solutions of equivalent molarity. Conditions: solution in 1:1 volumetric ratio acetonitrile to de-ionized water; 1.32 × 10^−6 mol, concentration as in Table 3. It counts as physicochemical.
Data set [2] in a line: Solubility of matrix in acetonitrile/de-ionized water matrix solvent. The class given is physicochemical. Conditions: acetonitrile/de-ionized water 1:1 (v/v), aqueous with cosolvent or surfactant or cyclodextrin, thermodynamic from solid; 1:1 volumetric ratio acetonitrile to de-ionized water; read-out: Matrix concentration that displayed insolubility. The procedure:
To further investigate the sample concentrating properties of CNT anchor spots, experiments were conducted using varying concentration of sample. Solutions were prepared. A solution of 1:1 volumetric ratio of acetonitrile to de-ionized water was prepared as a matrix solvent. Dry crystalline matrix αCHCA was weighed out with a Sartorius Research (Goettingen, Germany) model R200D digital precision balance and combined in a 1.5 mL Eppendorf® Safe-Lock Microcentrifuge tube (Westbury, N.Y.) with sufficient quantity of solution to achieve a matrix concentration varied over three orders of magnitude from 0.006 mg/mL to 6 mg/mL. […] All matrix solutions were prepared freshly and independently of each other in order to reduce possibility of concentration error. The samples were prepared by manually depositing 0.2 μL of solution from pipette to new carbon nanotube enhanced substrates (same parameters as previous experiment). The droplets were allowed to dry in ambient conditions (room temperature 23° C.), and time-lapse images were captured using the optical microscope described previously.

As for `O=C(O)c1ccccc1` [Benzoic acid], in data set [1], the pH amounted to 3.6.
Same read-out and setting: as for `Oc1ccccc1O` [Catechol], the figure is 4.5; as for `OCCCCCCCCCCO` [Decanediol, 1,10-Decanediol], 7.6; as for `O=C(O)c1ccccc1O` [Salicylic acid], 2.8.
As for `N#CC(=Cc1ccc(O)cc1)C(=O)O` [αCHCA, α-cyano-4-hydroxycinnamic acid], the pH in data set [1] came to 2.75. The solubility in data set [2] is more than 6 mg/mL.

The values above are taken from patent US10074530B1, “Carbon nanotube anchor for mass spectrometer” (University of South Florida, priority 2008, dated 2018).
